Assay results: patent US9545105B2, “1-(heterocyclic carbonyl) piperidines” (BAYER INTELLECTUAL PROPERTY GMBH, priority 2010, dated 2017)
Blank lines part the entries; values can stand above or below the compound they belong to.

Experiments:
[1] = log P by HPLC on reversed-phase column (C 18), EEC Directive 79/831 Annex V.A8; type: physicochemical; settings: HPLC on reversed-phase column (C 18); 40° C.; 0.1% aqueous formic acid and acetonitrile; linear gradient 10% to 90% acetonitrile
Method in brief: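 Calibration relied on straight-chain alkan-2-ones with 3 to 16 carbon atoms and known log P, with sample values read by linear interpolation of retention time between two adjacent standards. Separation at 40° C used 0.1% aqueous formic acid with acetonitrile rising linearly from 10% to 90%. UV spectra from 200 nm to 400 nm at chromatographic peak maxima gave lambda-max.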

Sphaerotheca fuliginea = assay: In vivo preventive test on Sphaerotheca fuliginea (cucumber); settings: 500 ppm of active ingredient, evaluated 7 days after inoculation
Protocol: Solvent: 49 parts by weight of N,N-dimethylformamide Emulsifier: 1 part by weight of Alkylarylpolyglycolether To produce a suitable preparation of active compound, 1 part by weight of active compound is mixed with the stated amounts of solvent and emulsifier, and the concentrate is diluted with water to the desired concentration. To test for preventive activity, young plants are sprayed with the preparation of active compound at the stated rate of application. One day after this treatment, the plants are inoculated with an aqueous spore suspension of Sphaerotheca fuliginea. Then the plants are placed in a greenhouse at approximately 23° C. and a relative atmospheric humidity of approximately 70%. The test is evaluated 7 days after the inoculation. 0% means an efficacy which corresponds to that of the untreated control, while an efficacy of 100% means that no disease is observed.

Pyrenophora teres = assay: In vivo preventive test on Pyrenophora teres (barley); settings: 500 ppm of active ingredient, evaluated 7-9 days after inoculation
Method in brief: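 Young barley plants sprayed with compound in DMF/alkylaryl polyglycol ether emulsion; inoculated with P. teres spores one day later. 48 h at 22 °C, 100% humidity, then greenhouse ~20 °C, ~80% humidity; efficacy scored 7-9 days post-inoculation, 0% = untreated, 100% = no disease.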

Venturia inaequalis = assay: In vivo preventive test on Venturia inaequalis (apple scab); settings: 100 ppm of active ingredient, evaluated 10 days after inoculation
Protocol: (§1) Solvent: 24.5 parts by weight of acetone • 24.5 parts by weight of N,N-dimethylacetamide Emulsifier: 1 part by weight of alkylaryl polyglycol ether To produce a suitable preparation of active compound, 1 part by weight of active compound is mixed with the stated amounts of solvent and emulsifier, and the concentrate is diluted with water to the desired concentration. To test for preventive activity, young plants are sprayed with the preparation of active compound at the stated rate of application. After the spray coating has dried on, the plants are inoculated with an aqueous conidia suspension of the causal agent of apple scab (Venturia inaequalis) and then remain for 1 day in an incubation cabinet at approximately 20° C. and a relative atmospheric humidity of 100%. The plants are then placed in a greenhouse at approximately 21° C. and a relative atmospheric humidity of approximately 90%. The test is evaluated 10 days after the inoculation. 0% means an efficacy which corresponds to that of the untreated control, while an efficacy of 100% means that no disease is observed.

Septoria tritici = assay: In vivo preventive test on Septoria tritici (wheat); settings: 500 ppm of active ingredient, evaluated 21 days after inoculation
Protocol: (§2) Solvent: 49 parts by weight of N,N-dimethylacetamide Emulsifier: 1 part by weight of alkylaryl polyglycol ether To produce a suitable preparation of active compound, 1 part by weight of active compound or active compound combination is mixed with the stated amounts of solvent and emulsifier, and the concentrate is diluted with water to the desired concentration. To test for preventive activity, young plants are sprayed with the preparation of active compound or active compound combination at the stated rate of application. After the spray coating has been dried, the plants are sprayed with a spore suspension of Septoria tritici. The plants remain for 48 hours in an incubation cabinet at approximately 20° C. and a relative atmospheric humidity of approximately 100% and afterwards for 60 hours at approximately 15° C. in a translucent incubation cabinet at a relative atmospheric humidity of approximately 100%. The plants are placed in the greenhouse at a temperature of approximately 15° C. and a relative atmospheric humidity of approximately 80%. The test is evaluated 21 days after the inoculation. 0% means an efficacy which corresponds to that of the untreated control, while an efficacy of 100% means that no disease is observed.

[2] = system: Blumeria graminis f. sp. hordei; assay: In vivo preventive test on Blumeria graminis (barley); settings: 500 ppm of active ingredient, evaluated 7 days after inoculation
Protocol: Solvent: 49 parts by weight of N,N-dimethylacetamide Emulsifier: 1 part by weight of alkylaryl polyglycol ether To produce a suitable preparation of active compound, 1 part by weight of active compound or active compound combination is mixed with the stated amounts of solvent and emulsifier, and the concentrate is diluted with water to the desired concentration. To test for preventive activity, young plants are sprayed with the preparation of active compound or active compound combination at the stated rate of application. After the spray coating has been dried, the plants are dusted with spores of Blumeria graminis f. sp. hordei. The plants are placed in the greenhouse at a temperature of approximately 18° C. and a relative atmospheric humidity of approximately 80% to promote the development of mildew pustules. The test is evaluated 7 days after the inoculation. 0% means an efficacy which corresponds to that of the untreated control, while an efficacy of 100% means that no disease is observed.

Leptosphaeria nodorum = assay: In vivo preventive test on Leptosphaeria nodorum (wheat); settings: 500 ppm of active ingredient, evaluated 8 days after inoculation
Protocol: as §2, with “Leptosphaeria nodorum.” for “Septoria tritici.”, “approximately” for “approximately 100% and afterwards for 60 hours at approximately 15° C. in a translucent incubation cabinet at a relative atmospheric humidity of approximately”, “22°” for “15°”, “8” for “21”

Puccinia triticina = assay: In vivo preventive test on Puccinia triticina (wheat); settings: 500 ppm of active ingredient, evaluated 8 days after inoculation
Protocol: as §2, with “Puccinia triticina.” for “Septoria tritici.”, “approximately” for “approximately 100% and afterwards for 60 hours at approximately 15° C. in a translucent incubation cabinet at a relative atmospheric humidity of approximately”, “20°” for “15°”, “8” for “21”

[3] = system: Fusarium nivale (var. majus); assay: In vivo preventive test on Fusarium nivale (wheat); settings: 500 ppm of active ingredient, evaluated 5 days after inoculation
Protocol: Solvent: 49 parts by weight of N,N-dimethylacetamide Emulsifier: 1 part by weight of alkylaryl polyglycol ether To produce a suitable preparation of active compound, 1 part by weight of active compound or active compound combination is mixed with the stated amounts of solvent and emulsifier, and the concentrate is diluted with water to the desired concentration. To test for preventive activity, young plants are sprayed with the preparation of active compound or active compound combination at the stated rate of application. After the spray coating has been dried, the plants are slightly injured by using a sandblast and afterwards they are sprayed with a conidia suspension of Fusarium nivale (var. majus). The plants are placed in the greenhouse under a translucent incubation cabinet at a temperature of approximately 10° C. and a relative atmospheric humidity of approximately 100%. The test is evaluated 5 days after the inoculation. 0% means an efficacy which corresponds to that of the untreated control, while an efficacy of 100% means that no disease is observed.

Alternaria solani = assay: In vivo preventive test on Alternaria solani (tomato); settings: 500 ppm of active ingredient, evaluated 7 days after inoculation
Method in brief: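 Young tomato plants were sprayed preventively with compound in DMF/alkylarylpolyglycolether diluted in water, then inoculated one day later with A. solani spores. Incubation was 1 day at about 22 °C and 100% RH, then about 20 °C and 96% RH. Efficacy was scored 7 days after inoculation (0% = untreated control, 100% = no disease).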

Uromyces appendiculatus = assay: In vivo preventive test on Uromyces appendiculatus (bean rust); settings: 100 ppm of active ingredient, evaluated 10 days after inoculation
Protocol: as §1, with “spore” for “conidia”, “bean rust (Uromyces appendiculatus)” for “apple scab (Venturia inaequalis)”

Phakopsora pachyrhizi = assay: In vivo protective test on Phakopsora pachyrhizi (soybeans); settings: 250 ppm of active ingredient, evaluated 11 days after inoculation

logP [1]: 3.71
SMILES: Cc1cc(C)cc(C2CCCCN2C(=O)c2c(C(F)F)nn(C)c2F)c1 (stereo not shown) [Example 30]
Efficacy (Sphaerotheca fuliginea): 100% | Efficacy (Pyrenophora teres): 100% | Efficacy (Venturia inaequalis): 100% | Efficacy (Septoria tritici): 100% | Efficacy [2]: 100% | Efficacy (Leptosphaeria nodorum): 90% | Efficacy (Puccinia triticina): 100% | Efficacy [3]: 100%

logP [1]: 2.84
SMILES: CCc1nn(C)c(F)c1C(=O)N1CCCCC1c1cc(OC)cc(OC)c1 (stereo not shown) [Example 67]
Efficacy (Alternaria solani): 95% | Efficacy (Pyrenophora teres): 90% | Efficacy (Venturia inaequalis): 100% | Efficacy (Uromyces appendiculatus): 95% | Efficacy (Phakopsora pachyrhizi): 90%

The remaining lines, values behind:

SMILES: Cc1cc(C(=O)N2CCCCC2c2ccc(Cl)cc2)c(C)o1 (stereo not shown) [Example 53]
logP [1]: 4.04 | Efficacy (Alternaria solani): 90% | Efficacy (Pyrenophora teres): 95% | Efficacy (Septoria tritici): 90% | Efficacy [2]: 70% | Efficacy (Leptosphaeria nodorum): 78% | Efficacy (Puccinia triticina): 71% | Efficacy [3]: 100%

SMILES: Cc1nn(C)c(F)c1C(=O)N1CCCCC1c1cccc(Br)c1 (stereo not shown) [Example 95]
logP [1]: 3.06 | Efficacy (Sphaerotheca fuliginea): 91% | Efficacy (Alternaria solani): 100% | Efficacy (Pyrenophora teres): 95% | Efficacy (Septoria tritici): 100% | Efficacy [2]: 100% | Efficacy (Leptosphaeria nodorum): 89% | Efficacy (Puccinia triticina): 71% | Efficacy [3]: 100%

SMILES: CCC(c1ccccc1Cl)C1CCCCN1C(=O)c1c(C(F)F)nn(C)c1F (stereo not shown) [Example 162]
logP [1]: 4.13 | Efficacy (Sphaerotheca fuliginea): 100% | Efficacy (Alternaria solani): 100% | Efficacy (Pyrenophora teres): 100% | Efficacy (Septoria tritici): 100% | Efficacy [2]: 94% | Efficacy (Leptosphaeria nodorum): 90% | Efficacy (Puccinia triticina): 100%
